Laboratory results as given in patent publication US6596723B1, “Fungal efflux pump inhibitors” (Essential Therapeutics, Inc., priority 2001, dated 2003).
Like-named read-outs stand apart in the source and are kept apart here.

Key:
[1] = test system: A. fumigatus; assay: potentiation of Posaconazole vs. A. fumigatus; type: cell-based, Aspergillus fumigatus; settings: 15 strains
[2] = test system: clinical isolates of C. krusei; assay: potentiation of fluconazole vs. clinical isolates of C. krusei; type: cell-based; settings: Pichia kudriavzevii
[3] = test system: clinical isolates of C. parapsilosis; assay: potentiation of fluconazole vs. clinical isolates of C. parapsilosis; type: cell-based; settings: Lodderomyces parapsilosis
[4] = test system: clinical isolates of C. tropicalis; assay: potentiation of fluconazole vs. clinical isolates of C. tropicalis; type: cell-based; settings: for MIC50 / MIC90: Candida tropicalis
[5] = fluconazole MIC with FEPI at 16-32 μg/ml, C. krusei clinical isolates, read-out: MIC50 Flu + FEPI
[6] = fluconazole MIC with FEPI at 16-32 μg/ml, C. krusei clinical isolates, read-out: MIC90 Flu + FEPI
[7] = fluconazole MIC with FEPI at 16-32 μg/ml, read-out: MIC50 Flu + FEPI
[8] = fluconazole MIC with FEPI at 16-32 μg/ml, read-out: MIC90 Flu + FEPI
[9] = fluconazole MIC with FEPI at 16-32 μg/ml, C. tropicalis clinical isolates, read-out: MIC90 Flu + FEPI

SMILES | MPC8 ([1]; concentration of efflux pump inhibitor to reduce MIC of Posaconazole 8-fold) | MIC ([1]; Aspergillus fumigatus, footnote: minimum inhibitor concentration of Posaconazole alone to achieve 80% inhibition) | MIC50 [2, 5] | MIC90 [2, 6] | MIC50 [3, 7] | MIC90 [3, 8] | MIC50 ([4]; fluconazole MIC with FEPI at 16-32 μg/ml, […], read-out: MIC50 Flu + FEPI) | MIC90 [4, 9] | MIC90 ([2]; read-out: MIC90 Flu only) | MIC50 ([2]; fluconazole alone, C. krusei clinical isolates, read-out: MIC50 Flu only) | MIC50 ([3]; fluconazole alone, read-out: MIC50 Flu only) | MIC90 ([3]; fluconazole alone, read-out: MIC90 Flu only) | MIC50 ([4]; read-out: MIC50 Flu only) | MIC90 ([4]; read-out: MIC90 Flu only) | MIC50 Flu only ([4]; listed as Flu) | MIC50 ([4]; fluconazole MIC with FEPI at 16-32 μg/ml, C. tropicalis clinical isolates, read-out: MIC50 Flu + FEPI)
COc1ccc(N(C(=O)Nc2cccc(Cl)c2)C(C)c2nc3ccccc3c(=O)n2N2CCN(C)CC2)c(OC)c1 (stereo not drawn) [Compound 1, 3-(3-Chloro-phenyl)-1-(2,4-dimethoxy-phenyl)-1-{1-[3-(4-methyl-piperazin-1-yl)-4-oxo-3,4-dihydro-quinazolin-2-yl]-ethyl}-urea] | 8 to 32 µg/mL | > 32 µg/mL | 32 µg/mL | > 32 µg/mL | < 0.03 µg/mL | 0.25 µg/mL | 0.125 µg/mL | 2 µg/mL | – | – | – | – | – | – | – | –
OC(Cn1cncn1)(Cn1cncn1)c1ccc(F)cc1F [fluconazole, reference compound] | – | – | – | – | – | – | – | – | > 128 µg/mL | 64 µg/mL | 1 µg/mL | 4 µg/mL | > 128 µg/mL | > 128 µg/mL | 128 µg/mL | –
COc1ccc(N(C(=O)Nc2cccc(Cl)c2)C(C)c2nc3ccccc3c(=O)n2N2CCN(CCO)CC2)c(OC)c1 (stereo not drawn) [Compound 3, 3-(3-Chloro-phenyl)-1-(2,4-dimethoxy-phenyl)-1-(1-{3-[4-(2-hydroxy-ethyl)-piperazin-1-yl]-4-oxo-3,4-dihydro-quinazolin-2-yl}-ethyl)-urea] | – | – | > 32 µg/mL | > 32 µg/mL | < 0.03 µg/mL | 0.5 µg/mL | – | 8 µg/mL | – | – | – | – | – | – | – | 0.25 µg/mL
